Data from PMC9616412, “Nebulized fusion inhibitory peptide protects cynomolgus macaques from measles virus infection” (Nature Communications, 2022).

Settings: 74 MBq in 3 ml NaCl 0.9%, mesh nebulizer; Mean +/- SD of four experiments
Method: Following European recommendations, 2 five-year-old healthy female cynomolgus macaques, 3–4 kg, were housed under conventional conditions in the animal facility. […] Animals were acclimatized to laboratory conditions and trained to breathe an aerosol with a facemask spontaneously. Aerosol generated from 3 ml of 0.9% NaCl mixed with 74 MBq of DTPA radiolabeled with technetium 99 m (^99mTc-DTPA) was administered through a facemask connected to the prototype mesh nebulizers, as used in MeV infection experiments (Fig. 2a). Deposition of aerosol was extrapolated based on the ^99mTc-DTPA signal measured at the end of the nebulization using a gamma camera (Orbiter 75 Ecam, Siemens healthcare, Erlangen, Germany)[69]. The nebulizer charge was measured by counting the radioactivity in the syringe (that contained ^99mTc-DTPA) before and after loading the nebulizers. Immediately after aerosol delivery, the animals were imaged using the gamma camera. The post-anterior static scintigraphy acquisition was performed for 120 s. The amount of ^99mTc-DTPA deposited into airways and stomach and remaining in the nebulizer was determined from the digitalized images taking into account the tissue attenuation coefficients, previously determined by perfusion scintigraphy (intravenous injection of ^99mTc-macroagregates of albumin). The organ body outline was specified using a specific Region Of Interest (ROI), and the lungs were delineated using the perfusion scan ROI. The aerosol dose delivered to different organs of NHPs is reported as a percentage of the nominal dose placed in the nebulizer for that given experiment, taking into account the decay of technetium for all measurements.

O=C([O-])CN(CCN(CC(=O)[O-])CC(=O)[O-])CCN(CC(=O)[O-])CC(=O)[O-].[99Tc+4] [99mTC-DTPA, DTPA radiolabeled with technetium 99 m]
Deposition in macaque, Esophagus / trachea: 3.4 +/- 4.2%
Deposition in macaque, Lungs: 11.4 +/- 3.1%
Deposition in macaque, Stomach: 11.9 +/-9.2%
Deposition in macaque, Upper respiratory Tract: 29.5 +/- 11.9%
